The values below come from patent US20190248830A1, “PROLIPOSOMAL TESTOSTERONE UNDECANOATE FORMULATIONS” (WESTERN UNIVERSITY OF HEALTH SCIENCES, priority 2016, published 2019).

Like-named read-outs stand apart in the source and are kept apart here.

The nature of data set [1]: Oral PK (plasma T) of TSX-002, TSX-007, TSX-009, unformulated T and TU in female beagle dogs, fasted or fed. As to conditions: for Av. AUC (plasma T) / Av. Cmax (plasma T) / Av. Tmax / AUC / Cmax / Tmax: oral 7.5 mg/kg; for AUC / Cmax / Tmax: female, beagle, dog, plasma, po, 7.5 mg/kg; for AUC: read-out: Av. AUC (plasma T); for Cmax: read-out: Av. Cmax (plasma T); for Tmax: read-out: Av. Tmax. In kind it is in vivo. The procedure: In vivo pK data TSX-002 (native T:Lipid), TSX-007 (native T:Lipid:TPGS (20% w/w of T)), and TSX-009 (TU:Lipid:TPGS (20% w/w of T)). TSX-002, TSX-007, and TSX-009 formulations were orally administered to female beagle dogs under fasted or fed conditions. Fasted condition means animals were fasted overnight, dosing was performed the subsequent morning, and food was served two hours post-dosing. Animals were allowed access to food for another two hours, and monitored if they ate the food. Fed condition means animals were fasted overnight, dosing was performed the subsequent morning, and food was served 15 min. post-dosing. Animals were allowed access to food for another two hours, and monitored if they ate the food. Blood samples were taken, at 0, 0.5, 1, 2, 3, 4, 6, 8, 12 and 24 hours. The administered dosage of TU was 7.5 mg/kg (TU/body weight). Plasma samples were analyzed on Day 1 and Day 7. Pharmacokinetic data for treatment days 1 and 7, under fasting and fed conditions are reported for unformulated T in Table 2; unformulated TU in Table 3; TSX-002 (T:Lipid) in Table 4; TSX-007 (native T:Lipid:TPGS (20% w/w of T)) in Table 5; and TSX-009 (TU:Lipid:TPGS (20% w/w of T)) in Table 6.
(§1) In vivo pK data for TSX-010 (TU:Lipid, 1:1), TSX-011 (TU:Lipid, 1:2), and TSX-012 (TU:Lipid, 1:4) in female Beagle dogs. Unformulated TU, TSX-010, TSX-011, and TSX-012 formulations. In addition to tracking plasma T levels, blood samples taken by jugular vein puncture at 0, 0.5, 1, 2, 3, 4, 6, 8, 12, 24 hours, and the following pharmacokinetic (PK) parameters were analyzed for each formulation and unformulated testosterone and testosterone undecanoate. Table 18 contains PK data for unformulated testosterone and testosterone undecanoate at days 1 and 7, under fasted and fed conditions. Tables 19 and 20 contain PK data for the TSX-010, TSX-011, and TSX-012 formulations under fasted (Table 19) and fed (Table 20) conditions.

Data set [2] is described as follows: Plasma testosterone concentrations and PK after oral TSX-010, TSX-011, TSX-012 or unformulated TU in female beagle dogs. The data set is classed as in vivo. The conditions noted are these: TU 7.5 mg/kg. Here is the method:
Plasma testosterone concentrations after administration of TSX-010 (TU:Lipid, 1:1), TSX-011 (TU:Lipid, 1:2), and TSX-012 (TU:Lipid, 1:4). Unformulated TU, TSX-010, TSX-011, and TSX-012 formulations were orally administered under either fasted or fed conditions. The fasted condition means animals were fasted overnight, dosing was performed the subsequent morning, and food was served two hours post-dosing. Animals were allowed access to food for another two hours, and monitored if they ate the food. The fed condition means animals were fasted overnight, dosing was performed the subsequent morning, and food was served 15 min. post-dosing. Animals were allowed access to food for another two hours, and monitored if they ate the food. For unformulated TU, blood samples were taken by venipuncture of the jugular vein at 0, 0.5, 1, 2, 3, 4, 6, 8, 12, and 24 hours in both fed and fasted conditions. For TU formulations like TSX-010, TSX-011, TSX-012, blood samples were taken by venipuncture of the jugular vein at 0, 4, 6, 8, 10, 12, 14, 16, 18 and 24 hours in fasted conditions and at 0, 1, 2, 4, 6, 8, 10, 12, 16 and 24 hours in fed conditions in femalebeagle dogs. The administered dosages of TU were either 1.875, 3.75, or 7.5 mg/kg (TU/body weight). Plasma testosterone concentration data, was obtained at day 1 for formulations TSX-010, TSX-011, and TSX-012, and days 1 and 7, for unformulated TU.
as §1

As for `CCCCCCCCCCC(=O)O[C@H]1CC[C@H]2[C@@H]3CCC4=CC(=O)CC[C@]4(C)[C@H]3CC[C@]12C` [Unformulated TU, testosterone undecanoate], in data set [1] (Day 7, compared to responders to proliposomal TU formulations), the “Plasma profiles on Day 7” value is listed as “plasma profiles dropped significantly”. Also, in data set [1] (fed compared to fasted state), the “Increase in AUC and Cmax in the presence of food” value is “two-fold increase in AUC and Cmax”. Besides, the “Av. AUC (plasma T)” value in data set [1] (day 1, fasted) stood at 16.63 ± 27.15 ng·h/mL; in data set [1] (day 1, fed), 108.41 ± 42.73 ng·h/mL; in data set [1] (day 7, fasted) it was 30.88 ± 35.98 ng·h/mL; in data set [1] (day 7, fed), 20.50 ± 16.59 ng·h/mL. Also, the “Av. Cmax (plasma T)” value in data set [1] (day 1, fasted) came to 2.34 ± 3.94 ng/mL; in data set [1] (day 1, fed), 33.83 ± 5.06 ng/mL; in data set [1] (day 7, fasted), 4.38 ± 5.12 ng/mL; in data set [1] (day 7, fed) it was 5.37 ± 3.78 ng/mL. For the same compound, the “Av. Tmax” value in data set [1] (day 1, fasted) was determined as 6.50 ± 4.43 h; in data set [1] (day 1, fed), 4.0 ± 1.55 h; in data set [1] (day 7, fasted), 8.0 ± 5.66 h; in data set [1] (day 7, fed), 4.17 ± 3.25 h. Further, the “Animals with plasma T > 0.5 ng/mL, percent” value is “(33.3%)” in data set [2] (fasted, day 1); “(50%)” in data set [2] (fasted, day 7); “(100%)” in data set [2] (fed, day 1); “(100%)” in data set [2] (fed, day 7). In addition, the “Animals with plasma T > 0.5 ng/mL (responders/treated)” value in data set [2] (fasted, day 1, within 24 h) is 2/6; in data set [2] (fasted, day 7, within 24 h) it was 3/6; in data set [2] (fed, day 1, within 24 h), 6/6; in data set [2] (fed, day 7, within 24 h) it was 5/6.
One may read the AUC as the area under the concentration-time curve, a measure of exposure. Broadly, the Cmax is the highest concentration seen after dosing. Broadly, the Tmax is the time from dosing to the highest level. As for `C[C@]12CC[C@H]3[C@@H](CCC4=CC(=O)CC[C@@]43C)[C@@H]1CC[C@@H]2O` [Unformulated T, testosterone], the AUC was 28.7 ± 9.44 ng·h/mL in data set [1] (day 1, fasted); 36.8 ± 19.4 ng·h/mL in data set [1] (day 1, fed); 11.2 ± 3.28 ng·h/mL in data set [1] (day 7, fasted); 43 ± 43.9 ng·h/mL in data set [1] (day 7, fed). Also, the Cmax was found to be 6.39 ± 2.47 ng/mL in data set [1] (day 1, fasted); 9.85 ± 5.8 ng/mL in data set [1] (day 1, fed); 2.7 ± 0.78 ng/mL in data set [1] (day 7, fasted); 13 ± 13.6 ng/mL in data set [1] (day 7, fed). Further, the Tmax is 2.17 ± 0.98 h in data set [1] (day 1, fasted); 3.67 ± 2.58 h in data set [1] (day 1, fed); 2.5 ± 1.22 h in data set [1] (day 7, fasted); 3.5 ± 4.42 h in data set [1] (day 7, fed).
